{"source": "patent US9346812B2", "about": "“Substituted pyrrolopyrimidine compounds, compositions thereof, and methods of treatment therewith” (Signal Pharmaceutical LLC, priority 2013, dated 2016)"}
{"tested_on": "CAL51 cell proliferation", "test": "Cell Titer Glo Proliferation Assay (CAL51)", "assay_type": "cell-based, human", "details": "Homo sapiens, CAL-51; CAL51 cell proliferation, 72 h, Cell Titer Glo luminescence; read-out: Act. Level", "in_short": "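Viability is measured by CellTiter-Glo luminescence after 72 h of compound exposure. CAL51 cells were seeded in growth medium with 10% FBS and 2 mM glutamine, cultured overnight, then dosed with compound dilutions, vehicle held at 0.2% DMSO.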", "units": {"IC50": "nM"}}
{"smiles": "Cc1cc(C(=O)N(C)C)ccc1Nc1nc(OC2CCOCC2)c2c(-c3ccnc(C#N)c3)c[nH]c2n1", "note": "[Example 140, 4-(5-(2-cyanopyridin-4-yl)-4-(tetra-hydro-2H-pyran-4-yloxy)-7H-pyrrolo[2,3-d]pyrimidin-2-ylamino)-N,N,3-trimethylbenzamide]", "IC50": "100 to 400"}
{"smiles": "CNC(=O)c1ccc(Nc2nc(OC)c3c(-c4ccc(-c5ncc[nH]5)cc4)c[nH]c3n2)c(OC)c1", "note": "[Example 141, 4-(5-(4-(1H-imidazol-2-yl)phenyl)-4-methoxy-7H-pyrrolo[2,3-d]pyrimidin-2-ylamino)-3-methoxy-N-methylbenzamide]", "IC50": "100 to 400"}
{"smiles": "CNC(=O)c1ccc(Nc2nc(OC3CCOCC3)c3c(-c4ccnc(N)c4)c[nH]c3n2)c(OC)c1", "note": "[Example 142, 4-(5-(2-aminopyridin-4-yl)-4-(tetra-hydro-2H-pyran-4-yloxy)-7H-pyrrolo[2,3-d]pyrimidin-2-ylamino)-3-methoxy-N-methylbenzamide]", "IC50": "< 100"}
{"smiles": "CNC(=O)c1ccc(Nc2nc(OC3CCOCC3)c3c(-c4ccnc(OC)c4)c[nH]c3n2)c(OC)c1", "note": "[Example 143, 3-methoxy-4-(5-(2-methoxypyridin-4-yl)-4-(tetrahydro-2H-pyran-4-yloxy)-7H-pyrrolo[2,3-d]pyrimidin-2-ylamino)-N-methylbenzamide]", "IC50": "< 100"}
{"smiles": "CNC(=O)c1cccc(-c2c[nH]c3nc(Nc4ccc(C(=O)NC)cc4C)nc(OC4CCOCC4)c23)c1", "note": "[Example 144, N,3-dimethyl-4-(5-(3-(methyl-carbamoyl)phenyl)-4-(tetrahydro-2H-pyran-4-yloxy)-7H-pyrrolo[2,3-d]pyrimidin-2-ylamino)benzamide]", "IC50": "1000 to 10000"}
{"smiles": "CNC(=O)c1ccc(Nc2nc(OC3CCOCC3)c3c(-c4ccnc(O)c4)c[nH]c3n2)c(OC)c1", "note": "[Example 147, 4-(5-(2-hydroxypyridin-4-yl)-4-(tetrahydro-2H-pyran-4-yloxy)-7H-pyrrolo[2,3-d]pyrimidin-2-ylamino)-3-methoxy-N-methylbenzamide]", "IC50": "100 to 400"}
{"smiles": "CNC(=O)c1ccc(Nc2nc(OC3CCOCC3)c3c(-c4ccc5nc(C)n(C)c5c4)c[nH]c3n2)c(OC)c1", "note": "[Example 148, 4-(5-(1,2-dimethyl-1H-benzo[d]imidazol-6-yl)-4-(tetrahydro-2H-pyran-4-yloxy)-7H-pyrrolo[2,3-d]pyrimidin-2-ylamino)-3-methoxy-N-methylbenzamide]", "IC50": "< 100"}
{"smiles": "CNC(=O)c1cccc(-c2c[nH]c3nc(Nc4ccc(C(=O)NC)cc4C)nc(OC)c23)c1", "note": "[Example 149, 4-(4-methoxy-5-(3-(methylcarbamoyl)phenyl)-7H-pyrrolo[2,3-d]pyrimidin-2-ylamino)-N,3-dimethylbenzamide]", "IC50": "1000 to 10000"}
{"smiles": "CNC(=O)c1ccc(Nc2nc(O[C@H]3CC[C@](C)(O)CC3)c3c(-c4ccc5nc(C)oc5c4)c[nH]c3n2)c(C)c1", "note": "[Example 150, 4-(4-((1r,4r)-4-hydroxy-4-methylcyclohexyloxy)-5-(2-methylbenzo[d]oxazol-6-yl)-7H-pyrrolo[2,3-d]pyrimidin-2-ylamino)-N,3-dimethylbenzamide]", "IC50": "< 100"}
{"smiles": "CNC(=O)c1ccc(Nc2nc(O[C@H]3CC[C@@](C)(O)CC3)c3c(-c4ccc5nc(C)oc5c4)c[nH]c3n2)c(C)c1", "note": "[Example 151, 4-(4-((1s,4s)-4-hydroxy-4-methylcyclohexyloxy)-5-(2-methylbenzo[d]oxazol-6-yl)-7H-pyrrolo[2,3-d]pyrimidin-2-ylamino)-N,3-dimethylbenzamide]", "IC50": "< 100"}
{"smiles": "CNC(=O)c1ccc(-c2c[nH]c3nc(Nc4ccc(C(=O)NC)cc4C)nc(O[C@H]4CCOC4)c23)cc1", "note": "[Example 153, (S)-N,3-dimethyl-4-(5-(4-(methylcarbamoyl)phenyl)-4-(tetrahydrofuran-3-yloxy)-7H-pyrrolo[2,3-d]pyrimidin-2-ylamino)benzamide]", "IC50": "< 100"}
{"smiles": "CNC(=O)c1ccc(Nc2nc(OC3CCOCC3)c3c(-c4cncnc4)c[nH]c3n2)c(OC)c1", "note": "[Example 154, 3-methoxy-N-methyl-4-(5-(pyrimidin-5-yl)-4-(tetrahydro-2H-pyran-4-yloxy)-7H-pyrrolo[2,3-d]pyrimidin-2-ylamino) benzamide]", "IC50": "100 to 400"}
{"smiles": "CNC(=O)c1ccc(Nc2nc(OC3CCOCC3)c3c(-c4ccnc(NC)c4)c[nH]c3n2)c(OC)c1", "note": "[Example 155, 3-methoxy-N-methyl-4-(5-(2-(methylamino)pyridin-4-yl)-4-(tetrahydro-2H-pyran-4-yloxy)-7H-pyrrolo[2,3-d]pyrimidin-2-ylamino)benzamide]", "IC50": "< 100"}
{"smiles": "CNC(=O)c1ccc(Nc2nc(OC)c3c(-c4ccncc4)c[nH]c3n2)c(C)c1", "note": "[Example 156, 4-(4-methoxy-5-(pyridin-4-yl)-7H-pyrrolo[2,3-d]pyrimidin-2-ylamino)-N,3-dimethylbenzamide]", "IC50": "100 to 400"}
{"smiles": "COc1nc(Nc2ccc(C(=O)N(C)C)cc2Cl)nc2[nH]cc(-c3ccncc3)c12", "note": "[Example 157, 3-chloro-4-(4-methoxy-5-(pyridin-4-yl)-7H-pyrrolo[2,3-d]pyrimidin-2-ylamino)-N,N-dimethylbenzamide]", "IC50": "100 to 400"}
{"smiles": "CNC(=O)c1ccc(Nc2nc(OC3CCOCC3)c3c(-c4ccc(S(C)(=O)=O)cc4)c[nH]c3n2)c(C)c1", "note": "[Example 158, N,3-dimethyl-4-(5-(4-(methylsulfonyl)phenyl)-4-(tetrahydro-2H-pyran-4-yloxy)-7H-pyrrolo[2,3-d]pyrimidin-2-ylamino)benzamide]", "IC50": "400 to 1000"}
{"smiles": "CNC(=O)c1ccc(-c2c[nH]c3nc(Nc4ccc(C(=O)N(C)C)cc4C)nc(OC4CCOCC4)c23)cn1", "note": "[Example 159, 5-(2-(4-(dimethylcarbamoyl)-2-methylphenylamino)-4-(tetrahydro-2H-pyran-4-yloxy)-7H-pyrrolo[2,3-d]pyrimidin-5-yl)-N-methylpicolinamide]", "IC50": "< 100"}
{"smiles": "COc1cc(C(=O)NCCO)ccc1Nc1nc(OC(C)C)c2c(-c3ccc4nc(C)oc4c3)c[nH]c2n1", "note": "[Example 160, N-(2-hydroxyethyl)-4-(4-isopropoxy-5-(2-methylbenzo[d]oxazol-6-yl)-7H-pyrrolo[2,3-d]pyrimidin-2-ylamino)-3-methoxybenzamide]", "IC50": "< 100"}
{"smiles": "CCOc1ccc(-c2c[nH]c3nc(Nc4ccc(C(=O)NC)cc4OC)nc(O[C@H]4CCOC4)c23)cn1", "note": "[Example 161, (S)-4-(5-(6-ethoxypyridin-3-yl)-4-(tetrahydrofuran-3-yloxy)-7H-pyrrolo[2,3-d]pyrimidin-2-ylamino)-3-methoxy-N-methylbenzamide]", "IC50": "100 to 400"}
{"smiles": "CCOc1ccc(-c2c[nH]c3nc(Nc4ccc(C(=O)NC)cc4C)nc(O[C@H]4CCOC4)c23)cn1", "note": "[Example 162, (S)-4-(5-(6-ethoxypyridin-3-yl)-4-(tetrahydrofuran-3-yloxy)-7H-pyrrolo[2,3-d]pyrimidin-2-ylamino)-N,3-dimethylbenzamide]", "IC50": "100 to 400"}
{"smiles": "CNC(=O)c1ccc(Nc2nc(OC3CCOCC3)c3c(-c4ccn(C)n4)c[nH]c3n2)c(OC)c1", "note": "[Example 163, 3-methoxy-N-methyl-4-(5-(1-methyl-1H-pyrazol-3-yl)-4-(tetrahydro-2H-pyran-4-yloxy)-7H-pyrrolo[2,3-d]pyrimidin-2-ylamino)benzamide]", "IC50": "< 100"}
{"smiles": "Cc1cc(C(=O)N(C)C)ccc1Nc1nc(O[C@H]2CCOC2)c2c(-c3cnn(C)c3)c[nH]c2n1", "note": "[Example 164, (S)-N,N,3-trimethyl-4-(5-(1-methyl-1H-pyrazol-4-yl)-4-(tetrahydrofuran-3-yloxy)-7H-pyrrolo[2,3-d]pyrimidin-2-ylamino)benzamide]", "IC50": "< 100"}
{"smiles": "CNC(=O)c1ccc(Nc2nc(O[C@H]3CCOC3)c3c(-c4cnn(C)c4)c[nH]c3n2)c(C)c1", "note": "[Example 165, (S)-N,3-dimethyl-4-(5-(1-methyl-1H-pyrazol-4-yl)-4-(tetrahydrofuran-3-yloxy)-7H-pyrrolo[2,3-d]pyrimidin-2-ylamino)benzamide]", "IC50": "< 100"}
{"smiles": "CNC(=O)c1ccc(Nc2nc(OC)c3c(-c4ccnc(C)c4)c[nH]c3n2)c(OC)c1", "note": "[Example 166, 3-methoxy-4-(4-methoxy-5-(2-methylpyridin-4-yl)-7H-pyrrolo [2,3-d]pyrimidin-2-ylamino)-N-methylbenzamide]", "IC50": "< 100"}
{"smiles": "CNC(=O)c1ccc(Nc2nc(OC3CCOCC3)c3c(-c4ccnc(C)c4)c[nH]c3n2)c(OC)c1", "note": "[Example 167, 3-methoxy-N-methyl-4-(5-(2-methylpyridin-4-yl)-4-(tetrahydro-2H-pyran-4-yloxy)-7H-pyrrolo[2,3-d]pyrimidin-2-ylamino)benzamide]", "IC50": "< 100"}
{"smiles": "CNC(=O)c1ccc(Nc2nc(OCCO)c3c(-c4ccc5nc(C)oc5c4)c[nH]c3n2)c(OC)c1", "note": "[Example 168, 4-(4-(2-hydroxyethoxy)-5-(2-methylbenzo[d]oxazol-6-yl)-7H-pyrrolo[2,3-d]pyrimidin-2-ylamino)-3-methoxy-N-methylbenzamide]", "IC50": "< 100"}
{"smiles": "CNC(=O)c1ccc(Nc2nc(O[C@H]3CCOC3)c3c(-c4ccc5nc(C)oc5c4)c[nH]c3n2)c(OC)c1", "note": "[Example 169, (S)-3-methoxy-N-methyl-4-(5-(2-methylbenzo[d]oxazol-6-yl)-4-(tetrahydrofuran-3-yloxy)-7H-pyrrolo[2,3-d]pyrimidin-2-ylamino)benzamide]", "IC50": "< 100"}
{"smiles": "CNC(=O)c1ccc(Nc2nc(OC3CCOCC3)c3c(-c4ccc5nc(C(C)C)oc5c4)c[nH]c3n2)c(OC)c1", "note": "[Example 170, 4-(5-(2-isopropylbenzo[d]oxazol-6-yl)-4-(tetrahydro-2H-pyran-4-yloxy)-7H-pyrrolo[2,3-d]pyrimidin-2-ylamino)-3-methoxy-N-methylbenzamide]", "IC50": "100 to 400"}
{"smiles": "CNC(=O)c1ccc(Nc2nc(OC3CCOCC3)c3c(-c4nccn4C)c[nH]c3n2)c(OC)c1", "note": "[Example 172, 3-methoxy-N-methyl-4-(5-(1-methyl-1H-imidazol-2-yl)-4-(tetrahydro-2H-pyran-4-yloxy)-7H-pyrrolo[2,3-d]pyrimidin-2-ylamino)benzamide]", "IC50": "1000 to 10000"}
{"smiles": "CNC(=O)c1ccc(Nc2nc(OC3CCOCC3)c3c(-c4ncco4)c[nH]c3n2)c(OC)c1", "note": "[Example 173, 3-methoxy-N-methyl-4-(5-(oxazol-2-yl)-4-(tetrahydro-2H-pyran-4-yloxy)-7H-pyrrolo[2,3-d]pyrimidin-2-ylamino)benzamide]", "IC50": "400 to 1000"}
